Measured values from patent US9708359B2, “Pyrrolopyrimidine nucleosides and analogs thereof” (Chimerix, Inc., priority 2015, dated 2017).

Legend:
human norovirus = assay: Efficacy of Compound 1 Against Human Norovirus (viral titer); assay type: cell-based; settings: cells pretreated with 25 μM compound for two hours; duplicate (FIGS. 4-6)
Protocol: The efficacy of compound 1 for inhibiting norovirus was compared to DMSO (as a control), compound 2, and 2′-C-methylcytidine triphosphate (2′CmeC TP). Cells were pretreated with 25 μM of experimental compound for two hours. Virus inoculum was added for two hours, and unbound virus washed off and fresh media and fresh experimental compound was added.

RAW cells = assay: Conversion of Compound 1 to Triphosphate in RAW Cells; settings: for (Compound 1-TP)/(Compound 1) (ng): ratio by ng; for (Compound 1-TP)/(Compound 1) (pmol): ratio by pmol
[1] = Cytotoxicity (CC50) in RAW cells; settings: mouse
mouse norovirus = assay: Mouse Norovirus (MNV) assay in RAW cells; settings: Norovirus, in Mus musculus, read-out: MNV Mean EC50, RAW cells
[2] = RAW cells incubated with 0.5 μM Compound 1 for 48 hours
[3] = RAW cells incubated with 1 μM Compound 1 for 48 hours
[4] = RAW cells incubated with 5 μM Compound 1 for 48 hours
[5] = RAW cells incubated with 10 μM Compound 1 for 48 hours

C[C@@]1(O)[C@H](O)[C@@H](COP(=O)(O)OP(=O)(O)OP(=O)(O)O)O[C@H]1n1ccc(N)nc1=O [2′CmeC TP, 2′-C-methylcytidine triphosphate, reference compound]
viral titer (human norovirus): increased almost two orders of magnitude

Cc1nc(N)c2c(C(N)=O)cn([C@@H]3O[C@H](COP(=O)(O)OP(=O)(O)OP(=O)(O)O)[C@@H](O)[C@H]3O)c2n1 [Compound 1-TP]
Concentration (ng/1 × 10^6 cells) (RAW cells; [2]): 3.74 ng/1 × 10^6 cells
Concentration (pmol/1 × 10^6 cells) (RAW cells; [2]): 6.37 pmol/1 × 10^6 cells
Concentration (ng/1 × 10^6 cells) (RAW cells; [3]): 5.13 ng/1 × 10^6 cells
Concentration (pmol/1 × 10^6 cells) (RAW cells; [3]): 8.74 pmol/1 × 10^6 cells
Concentration (ng/1 × 10^6 cells) (RAW cells; [4]): 26.77 ng/1 × 10^6 cells
Concentration (pmol/1 × 10^6 cells) (RAW cells; [4]): 45.61 pmol/1 × 10^6 cells
Concentration (ng/1 × 10^6 cells) (RAW cells; [5]): 41.78 ng/1 × 10^6 cells
Concentration (pmol/1 × 10^6 cells) (RAW cells; [5]): 71.18 pmol/1 × 10^6 cells
(Compound 1-TP)/(Compound 1) (ng) (RAW cells; 0.5 μM Compound 1, 48 hours): 21.8
(Compound 1-TP)/(Compound 1) (ng) (RAW cells; 1 μM Compound 1, 48 hours): 39.4
(Compound 1-TP)/(Compound 1) (ng) (RAW cells; 5 μM Compound 1, 48 hours): 41.3
(Compound 1-TP)/(Compound 1) (ng) (RAW cells; 10 μM Compound 1, 48 hours): 41.1
(Compound 1-TP)/(Compound 1) (pmol) (RAW cells; 0.5 μM Compound 1, 48 hours): 12.0
(Compound 1-TP)/(Compound 1) (pmol) (RAW cells; 1 μM Compound 1, 48 hours): 21.7
(Compound 1-TP)/(Compound 1) (pmol) (RAW cells; 5 μM Compound 1, 48 hours): 22.7
(Compound 1-TP)/(Compound 1) (pmol) (RAW cells; 10 μM Compound 1, 48 hours): 22.6

C[C@@]1(O)[C@H](O)[C@@H](CO)O[C@H]1n1ccc(N)nc1=O [2′-C-Methyl Cytidine, reference compound]
CC50 [1]: 34.3 µM
EC50 (mouse norovirus): 3.2 µM
